Laboratory results published in patent US7112318B2, “Non-invasive diagnostic imaging technology for mitochondria dysfunction using radiolabeled lipophilic salts” (The Johns Hopkins University, priority 2002, dated 2006).

Columns and labels:
[1] = Stability in plasma after injection of the agent into mice (column-switch HPLC radiochromatography); type: in vivo
Protocol: Samples of mouse plasma were obtained from heparinized whole bloodcollected 5, 15 and 30 min p.i. of the tracer. To eliminate binding to plasma proteins, the plasma was added to solid urea to give a final concentration of 8M urea. The plasma-urea was loaded into a column switch HPLC system (Hilton 2000), in which the plasma passes through a small capture column (Oasis Sorbent, Waters Corp.), which retains lipophilic solutes, while polar species fail to bind and are detected as they pass through a positron detector. After four minutes, the capture column is free of plasma proteins and polar species. Then, the contents of the capture column was swept onto an analytical column (Prodigy ODS-3, Phenomenex) by 40% acetonitrile, 60% triethylamine acetate buffer pH 4.1 at 1 mL/min, where separation of the parent compound and lipophilic metabolites occurs. The effluent from the analytical column also passes through the positron flow detector. The proportion of each species is determined from the area under each chromatographic peak. Results: Radiochemical purity of the 18F-labeled FBnTP was more than 95%. […] FIG. 1 depicts the chromatogram of plasma collected 30 min p.i., and the parental compound incubated for a similar time period (30 min) in buffered saline. Plasma activity and parental compound peaked at same time (˜6 min).

[2] = Stability of fluorination: total bone uptake after i.v. injection; type: in vivo; details: mice, 5 and 30 min p.i., compared to mice injected with F-18 only
Protocol: Methods: Mice were injected via the tail vein with 25 μCi of F-18-PhC; 5 and 30 min p.i., the left or right femur bone was removed, and bone radioactivity together with standard (1:100 of injected dose) were counted in a gamma counter. A parallel group of mice was injected with free fluorides (F-18). Three mice of each group were studied at each time point. Radioactivity is represented as percentage of injected dosed (% ID) and total bone uptake was calculated as activity in femur bone×20.

[3] = tested on: Human lung carcinoma H549 cells; assay: Mitochondria membrane potential (MMP)-dependent cellular uptake with CCCP; type: cell-based; details: 30 min
Protocol: The extent of MMP-dependent cellular uptake of F-18-FBnTP was assessed using CCCP, a known protonophore that selectively abolishes the MMP.
Methods: Human lung carcinoma H549 cells ([…]) were incubated with 0.1 μCi/ml F-18-FBnTP for 30 min. Samples of the suspension (1 mL) were transferred to Eppendorf s vials and placed in a 370C bath. Varying concentrations (30, 60, 90, 120 μM) of CCCP were added to the suspension. After 30 min of incubation with CCCP, the Eppendorf vials were centrifuged for 1 min, and activity in pellet and supernatant was immediately counted.

[4] = tested on: orthotopic NMU mammary tumor; assay: Tracer uptake in NMU mammary tumor versus healthy gland and FCA inflammation; type: in vivo; details: NMU-bearing rats, 60 min after i.v., normalized to muscle
Source text: The carcinogen nitrosomethyl urea (NMU) induces carcinoma tumors solely in the mammary gland of female rats. Therefore, the orthotopic NMU mammary tumor is an excellent model for evaluating tracer tumor selectivity by contrasting radioactivity accumulating in mammary gland infested with carcinoma cells and healthy mammary gland. Freund Complete Adjuvant (FCA) is a well_studied inflammation agent in rats Induction of FCA inflammation in NMU-bearing rats allows for direct quantitation of tracer capability to differentiate carcinoma from inflammation.
(§1) 0.1 ml of nitrosomethyl urea (NUM) was introduced i.p in female rats (150 g). When tumor reached an approximate size of 1 to 1.5 cm, FCA was injected (0.15 ml) to the hind limb footpad. Uptake assays were carried out 3 days thereafter. F-18-FBnTP (0.25 mCi) was injected via tail vein. Sixty minutes later tumor, inflamed tissue and healthy muscle tissue of the opposite limb (control) were collected on ice, weighed and counted in a gamma counter together with standards.

[5] = tested on: FCA-induced inflammation; assay: Accumulation in FCA-induced inflammation tissue and healthy muscle; type: in vivo; details: rats, 3 days after administration of FCA
Protocol: as §1
The accumulation of the novel F-18-phosphonium cations, F-18-FBnTP and F-18-fluoropropyl triphenyl phosphonium (F-18-FPTP) in comparison with F-18-FDG in FCA-induced inflammation and healthy tissue is presented in Table 2. Induction of inflammation and activity counting were carried out as described above.

[6] = tested on: human lung carcinoma A549 cells; assay: Detection of response of lung carcinoma tumor to taxeter in vivo; details: A549 tumor in nude mice, 48 hours after i.v. taxeter, 60 min after tracer, normalized to muscle
Protocol: Methods: 2×10^6 human lung carcinoma A549 cells were inoculated s.q. in 12 nude mice. When tumor size reached an approximate size of 5—10 mm, six mice were injected i.v. with taxeter and six mice served as control. Uptake assays were carried out 48 hours thereafter. 25 μCi of F-18-FBnTP were injected i.v., and tumor and muscle tissue was dissected after 60 min.

[7] = tested on: prostate carcinoma; assay: Tumor selectivity in orthotopic model of prostate carcinoma; type: in vivo; details: nude mice, normalized to muscle
Protocol: Methods: 2×10^6 cells were injected, under anesthesia, into the prostate epithelial tissue of nude mice. When tumor reached an approximate size of 5 mm, uptake assays were performed as described above. Tumor selectivity of F-18-FBnTP and F-18-FDG was compared (3 mice in each group)

[8] = tested on: myocardium; assay: F-18-FBnTP uptake kinetics in the myocardium (dog PET); type: in vivo, Mongrel dogs
Protocol: Methods: Mongrel dogs (BW=35 kg) were injected with 3–4 mCi of F-18-FBnTP. Images were acquired on a GE 4096+ scanner (15 slices, 6.5 mm slice thickness). PET scans of increasing duration (15 sec to 20 min) were acquired over a total time of 85 min post-injection. Arterial blood samples (0.5 ml in volume) were collected every few seconds for the first 3 minutes and at gradually increasing intervals (1 to 10 min) for the remaining time of the imaging study. The vascular and myocardial kinetics of F-18-FBnTP was analyzed using the ROI method.

[9] = tested on: myocardium; assay: F-18-FBnTP myocardial accumulation in heart failure (pacing 210 bpm, 4 weeks, PET); type: in vivo, Mongrel dog
Protocol: Pacing of the mongrel dog heart at high rate (210 bpm) for a four weeks is a well-established model of heart failure. The advantage of this model is that the cardiomayopathy solely involve apoptosis without stenosis of coronary artery or related ischemia. Therefore, in this model the affect of apoptosis on FBnTP uptake can be dissected.
Methods: Preparation of dog and data acquisition was performed as described above. Mongrel dog was installed with a pacemaker in the rib case and underwent FBnTP PET scan (presented above). Following the baseline scan, the dog_s heart was paced at a rate of 210 bpm for 4 weeks and a second scan was acquired.
Quantitation of FBnTP in the myocardium was performed using region of interest placed on co-registered myocardial images, whose activity was normalized to the injected dose, before and after pacing. An example for ROI placement is illustrated in FIG. 18.

[10] = Biodistribution in mice 60 min after i.v. injection; details: 60 min after iv. injection
Protocol: Three to five mice were used for the biodistribution study of each tracer. Nonanesthetized animals were injected i.v. with tracer solution (FBnTP or FPTP, TPMP 25 μCi; MIBI 40 μCi; TPP 2 μCi, all in a volume of 0.2 mL saline) then killed by neck dislocation at 60 min after injection. The organs and tissues of interest were removed and counted by a radioactivity counter along with standards (1:1000) (LKB Wallac, 1282 Compugamma CS).

[18F]c1ccc(C[P+](c2ccccc2)(c2ccccc2)c2ccccc2)cc1 [Example F-18-FBnTP, F-18-fluorobenzyl triphenyl phosphonium]
stable after intravenous injection in vivo ([1]; mice, plasma radiochromatograms): more than 30 min | single radio-peak in plasma, share of total activity ([1]; mouse plasma after i.v. injection, no other peak observed): 97% | total bone uptake [2]: minimal bone uptake | total bone uptake ([2]; listed as F-18-PhC): marginal bone uptake | cellular uptake in the presence of varying concentrations of CCCP ([3]; CCCP 30, 60, 90, 120 μM): dose-dependent decrease | MMP-dependent share of cellular uptake ([3]; CCCP 30-120 μM): 86% | uptake in tumor relative to healthy gland [4]: 4 times | uptake in tumor relative to inflammation ([4]; FCA inflammation 3 days): 3 times | Inf/Control [5]: 0.42 ± 0.40 | accumulation, Blood [5]: 0.10 ± 0.01 % ID/g tissue | accumulation, Control (healthy muscle) [5]: 0.76 ± 0.21 % ID/g tissue | accumulation, Inflammation [5]: 0.27 ± 0.22 % ID/g tissue | decrease in accumulation in tumor after taxeter, compared to non-treated mice [6]: ~50% | uptake ratio of malignant-to-normal prostate tissue [7]: 2.5 | accumulation in the myocardium, time to equilibrium ([8]; dog PET, 85 min scan): reached equilibrium within a few minutes | washout from the blood pool ([8]; dog, arterial blood samples): rapid washout | Ratio P/B ([9]; Slices 36–37, ROI1): 0.62 | Ratio P/B ([9]; Slices 36–37, ROI2): 0.91 | Ratio P/B ([9]; Slices 36–37, ROI3): 0.85 | Ratio P/B ([9]; Slices 46–49, ROI1): 0.56 | myocardial uptake, Baseline ([9]; Slices 46–49, ROI1, average activity over 36 to 85 min per slice): *108.62 % of injected dose | Ratio P/B ([9]; Slices 46–49, ROI2): 0.76 | Ratio P/B ([9]; Slices 46–49, ROI3): 0.82 | decrease in uptake in the inferior wall after pacing ([9]; dog, 4-wks pacing at 210 bpm versus baseline): 40–60% | biodistribution, blood [10]: 0.02 ± 0.00 % ID/g | biodistribution, brain [10]: 0.07 ± 0.01 % ID/g | biodistribution, heart [10]: 35.39 ± 5.02 % ID/g | biodistribution, kidney [10]: 4.89 ± 0.88 % ID/g | biodistribution, liver [10]: 3.00 ± 1.12 % ID/g | biodistribution, lung [10]: 7.38 ± 1.55 % ID/g | biodistribution, muscle [10]: 4.31 ± 1.30 % ID/g | biodistribution, spleen [10]: 1.79 ± 0.57 % ID/g
